Our source for the IC50 values is patent publication US20250034161A1, “SPIROCYCLIC COMPOUND AS KRAS-G12C INHIBITOR” (Shanghai Euregen Biopharma Co., Ltd., priority 2020, published 2025).

Where two headings read alike, the source gives them in different places. Where only a bound is given, the exact number is not on record here.

For the assay, the system named is NCI-H358 cells. Put plainly: Inhibitory effect on proliferation of NCI-H358 cells (CellTiter-Glo, 72 h). Format: cell-based, human. The text has this:
Inhibitory effect of compounds on the proliferation of […] cells • 1. Experimental principle: NCI-H358 cell is human non-small cell lung cancer cell line expressing KRAS G12C. […] Test materials: NCI-H358 cells were purchased from ATCC; CellTiter-GloR was purchased from Promega (item: G7571); RPMI-1640 was purchased from ATCC (item: 30-2001): fetal bovine serum (FBS) was purchased from EXCELL (item: FND500); Penicillin-streptomycin was purchased from Gibco (item: 15140-122); 0.25% trypsin-ethylenediaminetetraacetic acid digestive juice (Trypsin-EDTA) was purchased from Gibco (item: 25200-072); dimethyl sulfoxide (DMSO) was purchased from Sigma (item: D2650); 96-well plate was purchased from Corning (item: 3610); Incubator was purchased from Thermo (model: 3111); Inverted microscope was purchased from Nikon (item: TS-100); Automatic cell counter was purchased from Life technologies (model: Countess II); Enzyme plate reader was purchased from PerkinElmer (model: Envision); The data processing software was GraphPad Prism 5.0. • 3. Test method:
Cells in logarithmic growth phase were resuspended in growth medium (RPMI-1640+10% FBS) and diluted to target density ([…]). The above cell suspension was inoculated into 96-well plates at 100 μL per well; incubated overnight in a 37° C., 5% CO2 incubator. Medium was used as background control.
The test compound was dissolved in DMSO to prepare a stock solution at a concentration of 10 mmol/L. The stock solution was first diluted to 2 mmol/L with DMSO, and then diluted in 3-fold gradient for a total of 10 concentrations. 3 μL of each concentration of the above solution was taken and diluted with 197 μL of growth medium. […] at 50 μL/well in the 96-well plate. The cells to which the test compound was added were incubated in a 37° C., 5% CO2 incubator for 72 hours. The 96-well plate was equilibrated at room temperature, and 40 μL CellTiter-Glo reagent was added to each well. Then, the plate was mixed on the vortex for 2 minutes, incubated at room temperature for 60 minutes. The luminescence value was read on an EnVision microplate reader, and the IC50 of the compound was calculated using the GraphPad Prism 5.0 software.
For orientation: ATP-based viability assays read luminescence as a measure of living cells.

The IC50 is the midpoint of a concentration-inhibition curve. A low value points to greater potency. With `C=CC(=O)N1CCN(c2nc(OCC3CCCN3C)nc3c2CN(C)C2(CCc4ccccc42)C3)CC1` (stereo not shown) [Compound 1], under “Homo sapiens”, the IC50 is 1000 to 10000 nM.
As for `C=CC(=O)N1CCN(c2nc(OC[C@@H]3CCCN3C)nc3c2CN(C)C2(CCc4ccc(Cl)cc42)C3)C[C@@H]1CC#N` (stereo partly shown) [Compound 5], for the setting “Homo sapiens”, the IC50 was 100 to 1000 nM.
For the compound `CN1CCC[C@H]1COc1nc2c(c(N3CCN(C(=O)/C=C/CF)[C@@H](CC#N)C3)n1)CN(C)C1(CCc3ccccc31)C2` (stereo partly shown) [Compound 14], the IC50 fell in the range of 1000 to 10000 nM.
`C=C(F)C(=O)N1CCN(c2nc(OC[C@@]34CCCN3C[C@H](F)C4)nc3c2CN(C)C2(CCc4cccc(Cl)c42)C3)C[C@@H]1CC#N` (stereo partly shown) [Compound 35] yielded an IC50 (Homo sapiens) below 100 nM.
`C=CC(=O)N1CCN(c2nc(OC[C@@H]3CCCN3C)nc3c2CN(C)C2(CCc4ccccc42)C3)[C@@H](C)C1` (stereo partly shown) [Formate of 4] came in with an IC50 of 1000 to 10000 nM.
Same read-out and setting: with `C=CC(=O)N1CCN(c2nc(OC[C@@H]3CCCN3C)nc3c2CNC2(CCc4cccc(F)c42)C3)C[C@@H]1CC#N` (stereo partly shown) [Formate of 10] the figure was 100 to 1000 nM; with `C=CC(=O)N1CCN(c2nc(OC[C@@H]3CCCN3C)nc3c2CN(C)C2(CCc4ccc(F)cc42)C3)C[C@@H]1CC#N` (stereo partly shown) [Formate of 11], 1000 to 10000 nM; with `CN(C)C/C=C/C(=O)N1CCN(c2nc(OC[C@@H]3CCCN3C)nc3c2CN(C)C2(CCc4cccc(F)c42)C3)C[C@@H]1CC#N` (stereo partly shown) [Formate of 15], 100 to 1000 nM.
Still for that read-out and setting: then `C=CC(=O)N1CCN(c2nc(OC[C@@H]3CCCN3C)nc3c2CN(C)C2(CCc4cccc(Cl)c42)C3)C[C@@H]1CC#N` (stereo partly shown) [Formate of 18], with below 100 nM; and `C=CC(=O)N1CCN(c2nc(OC[C@@H]3CCCN3C)nc3c2CN(C)C2(CCCc4ccccc42)C3)C[C@@H]1CC#N` (stereo partly shown) [Formate of 20], with below 100 nM; and `C=CC(=O)N1CCN(c2nc(OC[C@@H]3CCCN3C)nc3c2CN(C)C2(CCOc4ccccc42)C3)C[C@@H]1CC#N` (stereo partly shown) [Formate of 22], with 100 to 1000 nM.
The same measure, in the same setting: with `C=CC(=O)N1CCN(c2nc(OC[C@@H]3CCCN3C)nc3c2CN(C)C2(CCc4c(OC)cccc42)C3)C[C@@H]1CC#N` (stereo partly shown) [Formate of 24] the figure was 100 to 1000 nM; with `C=CC(=O)N1CCN(c2nc(OC[C@@]34CCCN3C[C@H](F)C4)nc3c2CN(C)C2(CCc4cccc(Cl)c42)C3)C[C@@H]1CC#N` (stereo partly shown) [Formate of 34], below 100 nM.
